Reference: EP1137645B1, “ALPHA-METHYLBENZYL-CONTAINING THIOUREA INHIBITORS OF HERPES VIRUSES CONTAINING A […] GROUP” (Wyeth, priority 1998, dated 2000)
≈ marks a conversion by molar mass, not a printed value. Like-named read-outs stand apart in the source and are kept apart here.

Legend:
HSV- I = assay: HSV antiviral (ELISA) assay; type: cell-based; conditions: read-out: IC50 (ug/ml) HSV
Protocol: Vero cells (ATCC #CCL-81) are plated on 96-well tissue culture plates at 3.5x10^4 cells per 100µl tissue culture DMEM (Dulbecco's modified Eagle media) supplemented with 2% fetal bovine serum (FBS) in each well. After overnight incubation @ 37°C (in 5% CO2) and 30 minutes prior to infection with HSV- I (multiplicity of infection equal to 0.006), cells are either untreated, or treated with test compound (multiple concentrations) or reference standard drug control. After approximately 24 hours post-infection incubation @ 37°C (in 5% CO2), cells are fixed for ELISA assay. The primary antibody is murine anti-HSV glycoprotein D monoclonal primary antibody and the secondary antibody is goat anti-mouse IgG linked to β-galactosidase. Thus the extent of viral replication is determined by assessing β-galactosidase activity by quantifying the generation of the 4-methyl umbelliferone fluorescent cleavage product after addition of the methyl umbelliferyl-β-D-galactoside (Sigma #M1633) substrate on a microfluorimeter (365nm for excitation and 450nm for emission). Antiviral activity (IC50) of the test compound is determined by comparing the flourescence obtained in absence of compound to that obtained in the presence of compound.

[1] = tested on: HCMV recombinant mutant virus whose genome contains the prokaryotic beta-glucuronidase gene; assay: microbe, parasite or virus in culture; type: cell-based, human cytomegalovirus; conditions: Human betaherpesvirus 5, Fibroblast
Description: Microtiter plate assay. Ninety-six well plate cultures of human foreskin fibroblasts are infected in the presence of inhibitor compound with a HCMV recombinant mutant virus whose genome contains the prokaryotic beta-glucuronidase gene (Jefferson, R. A., S. M. Burgess, and D. Hirsh. 1986. Beta-glucuronidase from Escherichia coli as a gene fusion marker. Proc. Natl. Acad. Sci. USA 83:8447-8451) whose expression is controlled by a viral promoter. An example of such a virus is RV145 (Jones, T. R., V. P. Muzithras, and Y. Gluzman. 1991. Replacement mutagenesis of the human cytomegalovirus genome: US10 and US11 gene products are nonessential. J. Virol. 65:5860-5872). Since it is under the control of a viral promoter, beta-glucuronidase expression is an indirect indicator of growth and replication of HCMV in this assay. At 96 hours post-infection, the infected cell lysates are prepared (using 50mM sodium phosphate [pH7.0] containing 0.1% Triton X-100 and 0.1% sarkosyl) and assayed for beta-glucuronidase activity using a substrate for the enzyme which when cleaved yields either a product which can be measured colorimetrically in a spectrophotometer or fluorescently in a microfluorimeter. Examples of such substrates are p-nitrophenyl-beta-D-glucuronide and methylumbelliferylglucuronide, respectively. The presence of an antiviral compound is indicated by the reduced expression of the HCMV genome resident beta-glucuronidase gene, compared to the absence of inhibitor. […] Data from this assay generated using varying amounts of inhibitor compound is also used to estimate the IC50 of an inhibitor compound.

VZV strain Ellen = assay: VZV antiviral (ELISA) assay; type: cell-based
Protocol: For the generation of stock VZV to be used in the assay, VZV strain Ellen (ATCC #VR-1367) is used to infect human foreskin fibroblast (HFF) cells at low multiplicity (less than 0.1) and incubated overnight at 37°C in 5% CO2. After the overnight incubation, the mixture of uninfected and VZV-infected HFF infected cells are then harvested and added to each well of 96-well plates (3.5x10^4 cells in 100 µl DMEM supplemented with 2% FBS) which contain test compound or the reference standard drug control (in 100µl DMEM supplemented with 2% FBS per well). These cells are incubated for three days at 37°C in 5% CO2, then fixed for ELISA assay. The primary antibody is murine anti-VZV glycoprotein II monoclonal antibody (Applied Biosystems, Inc. #13-145-100) and the secondary antibody is goat anti-mouse IgG linked to β-galactosidase. Thus the extent of viral replication is determined by assessing β-galactosidase activity by quantifying the generation of the 4-methyl umbelliferone fluorescent cleavage product after addition of the methyl umbelliferyl-β-D-galactoside (Sigma #M1633) substrate on a microfluorimeter (365nm for excitation and 450nm for emission). Antiviral activity (IC50) of the test compound is determined by comparing the flourescence obtained in absence of compound to that obtained in the presence of compound.

[2] = read-out: IC50 ug/ml HCMV, HCMV, human foreskin fibroblasts
[3] = Human alphaherpesvirus 3, VZV strain Ellen, HFF cells, ELISA, read-out: IC50 (ug/ml) VZV

Row | SMILES | IC50 (HSV- I; Vero) | IC50 [1, 2] | other results
1 | CN(C)c1cc(CCNC(=S)Nc2ccc(NC(=O)c3ccccc3F)cc2)cc(C(F)(F)F)c1 [Example 653, N-(4-{3-[2-(3-Dimethylamino-5-trifluoromethyl-phenyl)-ethyl]-thioureido}-phenyl)-2-fluoro-benzamide] | > 10 µg/mL | > 0.5 µg/mL | 
2 | O=C(Nc1ccc(NC(=S)NCCSc2ccccc2)cc1)c1ccccc1F [Example 656, 2-Fluoro-N-{4-[3-(2-phenylsulfanyl-ethyl)-thioureido]-phenyl}-benzamide] | 5 µg/mL (≈ 11.7 µM) | > 0.5 µg/mL | 
3 | O=C(Nc1ccc(NC(=S)NCc2cccc(I)c2)cc1)c1ccccc1F [Example 661, 2-Fluoro-N-{4-[3-(3-iodo-benzyl)-thioureido]-phenyl}-benzamide] |  |  | IC50 (HSV- I; HSV- I, Vero cells, ELISA): > 10 µg/mL; IC50 ([1]; read-out: IC50 ug/ml HCMV): > 0.5 µg/mL
4 | O=C(Nc1ccc(NC(=S)NCCOc2cc(Cl)cc(Cl)c2)cc1)c1ccccc1F [Example 664, N-(4-{3-[2-(3,5-Dichloro-phenoxy)-ethyl]-thioureido}-phenyl)-2-fluoro-benzamide] | 10 µg/mL (≈ 20.9 µM) | > 0.5 µg/mL | 
5 | O=C(Nc1ccc(NC(=S)NCCOc2cccc(Cl)c2)cc1)c1ccccc1F [Example 666, N-(4-{3-[2-(3-Chloro-phenoxy)-ethyl]-thioureido}-phenyl)-2-fluoro-benzamide] | 10 µg/mL (≈ 22.5 µM) | > 0.5 µg/mL | 
6 | O=C(Nc1ccc(NC(=S)NCc2cc(C(F)(F)F)ccc2F)cc1)c1ccccc1F [Example 669, 2-Fluoro-N-{4-[3-(2-fluoro-5-trifluoromethyl-benzyl)-thioureido]-phenyl}-benzamide] |  |  | IC50 (HSV- I; HSV- I, Vero cells, ELISA): > 10 µg/mL; IC50 ([1]; read-out: IC50 ug/ml HCMV): > 0.5 µg/mL
7 | O=C(Nc1ccc(NC(=S)NCc2ccc(F)c(F)c2)cc1)c1ccccc1F [Example 672, N-{4-[3-(3,4-Difluoro-benzyl)-thioureido]-phenyl}-2-fluoro-benzamide] |  |  | IC50 (HSV- I; HSV- I, Vero cells, ELISA): > 10 µg/mL; IC50 ([1]; read-out: IC50 ug/ml HCMV): > 0.5 µg/mL
8 | Cc1cc(CCNC(=S)Nc2ccc(NC(=O)c3ccccc3F)cc2)ccc1N(C)C [Example 673, N-(4-{3-[2-(4-Dimethylamino-3-methyl-phenyl)-ethyl]-thioureido}-phenyl)-2-fluoro-benzamide] | 7 µg/mL (≈ 15.5 µM) | > 0.5 µg/mL | 
9 | O=C(Nc1ccc(NC(=S)NCc2ccc(F)c(Cl)c2)cc1)c1ccccc1F [Example 677, N-{4-[3-(3-Chloro-4-fluoro-benzyl)-thioureido]-phenyl}-2-fluoro-benzamide] | > 10 µg/mL | > 0.5 µg/mL | 
10 | O=C(Nc1ccc(NC(=S)NCCSc2cccc(Br)c2)cc1)c1ccccc1F [Example 680, N-(4-{3-[2-(3-Bromo-phenylsulfanyl)-ethyl]-thioureido}-phenyl)-2-fluoro-benzamide] | > 10 µg/mL | > 0.5 µg/mL | 
11 | CN1CCN(c2ccc(CNC(=S)Nc3ccc(NC(=O)c4ccccc4F)cc3)cc2C(F)(F)F)CC1 [Example 687, 2-Fluoro-N-(4-{3-[4-(4-methyl-piperazin-1-yl)-3-trifluoromethyl-benzyl]-thioureido}-phenyl)-benzamide] | 1.2 µg/mL (≈ 2.2 µM) | > 0.5 µg/mL | 
12 | O=C(Nc1ccc(NC(=S)NCCOc2ccc(Br)cc2)cc1)c1ccccc1F [Example 695, N-(4-{3-[2-(4-Bromo-phenoxy)-ethyl]-thioureido}-phenyl)-2-fluoro-benzamide] | > 10 µg/mL | > 3 µg/mL | 
13 | O=C(Nc1ccc(NC(=S)NCCOc2ccc(I)cc2)cc1)c1ccccc1F [Example 696, 2-Fluoro-N-(4-{3-[2-(4-iodo-phenoxy)-ethyl]-thioureido}-phenyl)-benzamide] |  |  | IC50 (HSV- I; HSV- I, Vero cells, ELISA): 10 µg/mL (≈ 18.7 µM); IC50 ([1]; read-out: IC50 ug/ml HCMV): > 3 µg/mL
14 | O=C(Nc1ccc(NC(=S)NCCc2ccc(Cl)c(Cl)c2)cc1)c1ccccc1F [Example 719, N-(4-{3-[2-(3,4-Dichloro-phenyl)-ethyl]-thioureido}-phenyl)-2-fluoro-benzamide] | > 10 µg/mL | > 0.5 µg/mL | 
15 | O=C(Nc1ccc(NC(=S)NCCc2ccccc2F)cc1)c1ccccc1F [Example 721, 2-Fluoro-N-(4-{3-[2-(2-fluoro-phenyl)-ethyl]-thioureido}-phenyl)-benzamide] |  |  | IC50 (HSV- I; HSV- I, Vero cells, ELISA): > 10 µg/mL
16 | CC(C)(C)c1ccc(CNC(=S)Nc2ccc(NC(=O)c3ccccc3F)cc2)cc1 [Example 724, N-{4-[3-(4-tert-Butyl-benzyl)-thioureido]-phenyl}-2-fluoro-benzamide] | > 10 µg/mL |  | 
17 | Cc1cc(C)cc(CNC(=S)Nc2ccc(NC(=O)c3ccccc3F)cc2)c1 [Example 725, N-{4-[3-(3,5-Dimethyl-benzyl)-thioureido]-phenyl}-2-fluoro-benzamide] | > 10 µg/mL |  | 
18 | CC(C)(NC(=S)Nc1ccc(NC(=O)c2ccccc2F)cc1)c1ccccc1 [Example 727, 2-Fluoro-N-{4-[3-(1-methyl-1-phenyl-ethyl)-thioureido]-phenyl}-benzamide] | > 10 µg/mL |  | 
19 | COc1ccccc1C(=O)Nc1ccc(NC(=S)NC(C)c2ccc(F)cc2)cc1 (centres unmarked) [Example 752, N-(4-{3-(1-(4-Fluoro-phenyl)-ethyl]-thioureido}-phenyl)-2-methoxy-benzamide] | > 10 µg/mL | > 0.5 µg/mL | 
20 | CC(NC(=S)Nc1ccc(NC(=O)c2ccc(N(C)C)cc2)cc1)c1ccc(F)cc1 (centres unmarked) [Example 765, 4-Dimethylamino-N-(4-{3-[1-(4-fluoro-phenyl)-ethyl]-thioureido}-phenyl)-benzamide] | 10 µg/mL (≈ 22.9 µM) | 2.3 µg/mL (≈ 5.27 µM) | 
21 | CCC(NC(=S)Nc1ccc(NC(=O)c2ccccc2F)cc1)c1ccc(F)cc1 (centres unmarked) [Example 771, 2-Fluoro-N-(4-{3-[1-(4-fluoro-phenyl)-propyl]-thioureido}-phenyl)-benzamide] | > 10 µg/mL | 0.4 µg/mL (≈ 0.94 µM) | 
22 | O=C(Nc1ccc(NC(=S)NC(c2ccccc2)c2ccc(F)cc2)cc1)c1ccccc1F (centres unmarked) [Example 772, 2-Fluoro-N-(4-{3-[(4-fluoro-phenyl)-phenyl-methyl]-thioureido}-phenyl)-benzamide] | > 10 µg/mL | 0.35 µg/mL (≈ 0.739 µM) | 
23 | O=C(Nc1ccc(NC(=S)Nc2cccc(Cl)c2Cl)cc1)c1ccccc1F [Example 927, N-{4-[3-(2,3-Dichloro-phenyl)-thioureido]-phenyl}-2-fluoro-benzamide] | 5 µg/mL (≈ 11.5 µM) | 2 µg/mL (≈ 4.6 µM) | 
24 | C[C@H](NC(=S)Nc1ccc(NC(=O)c2cc3ccccc3cn2)cc1)c1ccc(Br)cc1 [Example 1108, Isoquinoline-3-carboxylic acid (4-{3-[(1S)-1-(4-bromo-phenyl)-ethyl]-thioureido}-phenyl)-amide] |  | 2.3 µg/mL (≈ 4.55 µM) | IC50 (VZV strain Ellen; Human alphaherpesvirus 3, HFF, read-out: IC50 (ug/ml) VZV, VZV strain Ellen, HFF cells, ELISA): 0.05 µg/mL (≈ 0.0989 µM)
25 | C[C@H](NC(=S)Nc1ccc(NC(=O)c2nccc3ccccc23)cc1)c1ccc(Cl)cc1 [Example 1109, Isoquinoline-1-carboxylic acid (4-{3-[(1S)-1-(4-chloro-phenyl)-ethyl]-thioureido) -phenyl)-amide] |  |  | IC50 (VZV strain Ellen; [3]): 0.03 µg/mL (≈ 0.0651 µM); IC50 ([1]; read-out: IC50 ug/ml HCMV): 4.4 µg/mL (≈ 9.54 µM)
26 | CC(NC(=S)Nc1ccc(NC(=O)c2nccc3ccccc23)cc1)c1ccc(F)cc1 (centres unmarked) [Example 1110, Isoquinoline-1-carboxylic acid (4-{3-[1-(4-fluoro-phenyl)-ethyl]-thioureido}-phenyl)-amide] |  |  | IC50 (VZV strain Ellen; [3]): 0.05 µg/mL (≈ 0.112 µM); IC50 ([1]; read-out: IC50 ug/ml HCMV): 3.3 µg/mL (≈ 7.42 µM)
27 | C[C@H](NC(=S)Nc1ccc(NC(=O)c2nccc3ccccc23)cc1)c1ccc(C#N)cc1 [Example 1111] |  | > 10 µg/mL | IC50 (VZV strain Ellen; Human alphaherpesvirus 3, HFF, read-out: IC50 (ug/ml) VZV): 0.1 µg/mL (≈ 0.221 µM)
